According to ChEMBL document CHEMBL1143451, “The neuroprotective action of JNK3 inhibitors based on the 6,7-dihydro-5H-pyrrolo[1,2-a]imidazole scaffold” (Bioorg Med Chem Lett, 2005):

Tests used:
[1] = biological target: T1, Mitogen-activated protein kinase 10 (Homo sapiens, UniProt P53779); assay: Inhibitory activity against c-Jun N-terminal kinase 3 at a concentration of 1.0 uM
[2] = biological target: T2, Mitogen-activated protein kinase 14 (Homo sapiens, UniProt Q16539); assay: Inhibitory activity against p38 at a concentration of 1.0 uM
[3] = biological target: T1, Mitogen-activated protein kinase 10; assay: Inhibitory concentration against c-Jun N-terminal kinase 3 at a concentration of 1.0 uM
[4] = biological target: T2, Mitogen-activated protein kinase 14; assay: Inhibitory concentration against p38 at a concentration of 1.0 uM

T2 sequence (Q16539 whole entry): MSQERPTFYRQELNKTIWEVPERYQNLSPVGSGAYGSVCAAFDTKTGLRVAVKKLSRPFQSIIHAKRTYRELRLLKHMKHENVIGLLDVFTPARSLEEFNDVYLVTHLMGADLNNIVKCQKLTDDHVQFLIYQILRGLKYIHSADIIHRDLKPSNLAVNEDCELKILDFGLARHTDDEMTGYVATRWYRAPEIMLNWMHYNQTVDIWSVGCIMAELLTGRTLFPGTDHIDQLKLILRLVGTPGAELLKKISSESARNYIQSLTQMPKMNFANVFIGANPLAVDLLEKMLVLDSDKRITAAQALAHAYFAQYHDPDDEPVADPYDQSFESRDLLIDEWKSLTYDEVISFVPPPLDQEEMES
T1 sequence (P53779 whole entry): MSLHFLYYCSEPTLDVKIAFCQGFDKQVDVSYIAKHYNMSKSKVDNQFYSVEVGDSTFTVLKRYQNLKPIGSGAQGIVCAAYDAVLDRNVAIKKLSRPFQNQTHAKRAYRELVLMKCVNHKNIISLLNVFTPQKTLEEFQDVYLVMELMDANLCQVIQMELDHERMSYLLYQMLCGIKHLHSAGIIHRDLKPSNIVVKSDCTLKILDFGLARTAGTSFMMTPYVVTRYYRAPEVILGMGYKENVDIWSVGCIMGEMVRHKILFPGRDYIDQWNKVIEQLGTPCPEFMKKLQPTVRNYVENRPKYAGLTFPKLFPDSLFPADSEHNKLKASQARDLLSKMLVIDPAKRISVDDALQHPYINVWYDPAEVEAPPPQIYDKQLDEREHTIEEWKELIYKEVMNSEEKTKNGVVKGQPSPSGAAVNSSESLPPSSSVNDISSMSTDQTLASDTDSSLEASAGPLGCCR

Row | SMILES | IC50 [1] [nM] | IC50 [2] [nM] | IC50 [3] [nM] | IC50 [4] [nM]
1 | COc1ccc(COC[C@H]2CCc3nc(-c4ccc(F)cc4)c(-c4ccnc(N)n4)n32)cc1 | 270 | 116 |  | 
2 | CCCNc1nccc(-c2c(-c3ccc(F)cc3)nc3n2[C@H](CO)CC3)n1 | 2.5 | 28 |  | 
3 | O=C(NCCCn1cnc(-c2ccc(F)cc2)c1-c1ccncc1)c1ccccc1 |  |  | 130 | 
4 | [N-]=[N+]=Nc1cccc(-c2ncn(CCCNC(=O)c3ccc(I)cc3)c2-c2ccncc2)c1 |  |  |  | 46
5 | CCCNc1nccc(-c2c(-c3ccc(F)cc3)nc3n2[C@@H](CO)CC3)n1 | 3 | 31 |  | 

Results, then the compound that gave them:

Row | IC50 [1] [nM] | IC50 [2] [nM] | IC50 [3] [nM] | IC50 [4] [nM] | SMILES
6 | 233 | 217 |  |  | CCCNc1nccc(-c2c(-c3ccc(F)cc3)nc3n2[C@@H](COCc2ccc(OC)cc2)CC3)n1
7 | 61.2 | 295 |  |  | COc1ccc(COC[C@@H]2CCc3nc(-c4ccc(F)cc4)c(-c4ccnc(N)n4)n32)cc1
8 | 10.9 | 54 |  |  | CCCNc1nccc(-c2c(-c3ccc(F)cc3)nc3n2[C@H](COCc2ccc(OC)cc2)CC3)n1
